Results: PubChem BioAssay AID2060491 (Molecular Pharmacology Branch, DTP, NCI, 2025)
Where “and” joins values, the source holds several entries; their conditions need not be identical. Equal values may be shown once.

Tested on: 857933-349-R-J2-PDC complex spheroids, viability
Assay: Anticancer human tumor 857933-349-R-J2-PDC patient-derived colon adenocarcinoma cell line growth inhibition [GQUAD]
Conditions: for viability, T/C: stronger effect = lower value
Source text: DNA G-quadruplex Stabilizer Agents in Combinations in Complex Spheroids
A high-throughput screen of multi-cell type tumor spheroids was designed to identify active combinations of DNA G-quadruplex stabilizer agents and targeted small molecules. Complex spheroids include a stromal component modeled by human endothelial cells (HUVEC) and fibroblasts modeled by human mesenchymal stem cells (MSCs). The concentration ranges selected for each drug and investigational agent were based upon clinically achievable concentrations if the clinical Cmax of the agent was known.
Compounds. The drugs and investigational agents: pidnarulex (CX-5461; NSC782164), APTO-253 (NSC789042), BRACO-19 (NSC847499), peposertib (NSC802822), ceralasertib (NSC780249), elimusertib (NSC800525), camonsertib (NSC841442), AZD-1390 (NSC803789), olaparib (NSC753686), talazoparib (NSC767125), ART-558 (NSC835418), sotorasib (NSC818433), MRTX-1133 (NSC836407), SN-38 (NSC673596), topotecan (NSC609699), etoposide (NSC141540), doxorubicin (NSC123127), gemcitabine (NSC613327), 5-fluorouracil (NSC19893), paclitaxel (NSC125973), vemurafenib (NSC761431), panobinostat (NSC761190), R-306465 (JNJ-16241199; NSC773264), adavosertib (NSC754352), TP-3654 (NSC805149), carboplatin (NSC241240), KSQ-4279 (NSC840948), and staurosporine (NSC755774) were obtained from the National Cancer Institute (NCI) Developmental Therapeutics Program Chemical Repository (34). The FDA-approved anticancer drug set is available from the NCI Developmental Therapeutics Program. […] The stock solutions were prepared in dimethyl sulfoxide (DMSO, Sigma-Aldrich, St. Louis, MO, cat. D2650) at 800-fold the tested concentration and stored at -70 degrees C prior to their use. All drugs and investigational agents were tested over a range starting from a high concentration at or near the clinical Cmax and decreasing in half-log increments. If the clinical Cmax for an agent had not been determined, the highest concentration tested was 10 microM.
2.3 Cell Culture. All cells were maintained in an incubator at 37 degrees C and 5% CO2 with 95% humidity. The PDC lines were cultured according to standard operating procedures established by the NCI PDMR. All PDCs were thawed and cultured in Matrigel-coated flasks prepared with a working solution of 1X Ham's F-12 nutrient mix, without supplementation (Invitrogen, cat. 11765054), 100 U/mL penicillin-streptomycin (Invitrogen, cat. 15140122), and 2.5% Matrigel (Corning Inc., cat. 354248) for the first three passages. The 857933-349-R-J2-PDC line was cultured in 6C/Colon 1B media, which includes advanced DMEM/F-12 (Thermo Fisher Scientific, cat. 12634028), 10 mM HEPES (Thermo Fisher Scientific, cat. 15630080), 1X GlutaMAX supplement (Thermo Fisher Scientific, cat. 35050061), 0.1 mg/mL primocin (InvivoGen, cat. ant-pm-2), 10% defined fetal bovine serum, heat inactivated (HyClone Laboratories Inc., cat. SH30070.03HI), 50% L-WRN conditioned media (ATCC, cat. CRL-3276), 1.25 mM N-Acetyl-L-cysteine (Sigma-Aldrich, cat. A9165), 10 mM nicotinamide (Sigma-Aldrich, cat. N0636), 1X B-27 supplement (Thermo Fisher Scientific, cat. 17504044), 1X N-2 supplement (Thermo Fisher Scientific, cat. 17502048), 10 microM Y-27632 dihydrochloride (Tocris Bioscience, cat. 1254), and 50 ng/mL human EGF recombinant protein (Thermo Fisher Scientific, cat. PHG0311). The 485176-168-R4-J1-PDC line was cultured in Panc media, which includes all 6C/Colon 1B media components plus 100 ng/mL human FGF-10 (Thermo Fisher Scientific, cat. 100-26), 500 nM SB-431542 (Selleckchem, cat. S1067), and gastrin (Tocris, cat. 3006).
[…]
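Further: spheroids exposed to compounds for one week before readout.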
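Wherever viability, T/C is given: percent viability relative to vehicle DMSO wells taken as 100%.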

CC1COCCN1c1cc(-c2ccnn2C)c2ccnc(-c3ccn[nH]3)c2n1 (centres undefined)
viability, T/C (compound 0.0316 µM): 75.8% and 95.2% and 75.5%
viability, T/C (compound 0.1 µM): 52.4% and 84.3% and 52.1%
viability, T/C (compound 0.316 µM): 50.2% and 75.8% and 40.3%
viability, T/C (compound 1 µM): 46.9% and 63.2% and 44.1%
viability, T/C (compound 3.16 µM): 55.8% and 55.3% and 45.5%
viability, T/C (compound 10 µM): 51.8% and 61.9% and 43.6%

Cc1[nH]c2ccc(F)cc2c1-c1nc2c3cccnc3c3ncccc3c2[nH]1
viability, T/C (compound 0.0316 µM): 106% [middle of 12 runs]
viability, T/C (compound 0.1 µM): 107% [middle of 12 runs]
viability, T/C (compound 0.316 µM): 103% [middle of 12 runs]
viability, T/C (compound 1 µM): 104% [middle of 12 runs]
viability, T/C (compound 3.16 µM): 92.1% [middle of 12 runs]
viability, T/C (compound 10 µM): 95.5% [middle of 12 runs]
IC50 (compound alone, run of 02/20/2024): > 10000 nM
IC50 (compound alone, run of 02/26/2024): > 10000 nM

CC1COCCN1c1cc(C2(S(C)(=N)=O)CC2)nc(-c2ccnc3[nH]ccc23)n1 (centres undefined)
viability, T/C (compound 0.0316 µM): 107% and 106% and 99%
viability, T/C (compound 0.1 µM): 96.8% and 99.1% and 94.2%
viability, T/C (compound 0.316 µM): 96.2% and 105% and 84.3%
viability, T/C (compound 1 µM): 68.3% and 92.9% and 61.6%
viability, T/C (compound 3.16 µM): 57.1% and 82.2% and 48.8%
viability, T/C (compound 10 µM): 47% and 65.2% and 39.2%
IC50 (curve of compound): 7380 nM and > 10000 nM and 2570 nM

CC1COCCN1c1cc(-c2ccnn2C)c2ccnc(-c3ccn[nH]3)c2n1 (centres undefined) + Cc1cnc(CNC(=O)c2c(=O)c3ccc(N4CCCN(C)CC4)nc3n3c2sc2ccccc23)cn1
IC50 (curve of first compound, second compound 0.0316 µM): < 31.6 nM
IC50 (curve of first compound, second compound 0.1 µM): < 31.6 nM
IC50 (curve of first compound, second compound 0.316 µM): < 31.6 nM
IC50 (curve of first compound, second compound 1 µM): < 31.6 nM
IC50 (curve of first compound, second compound 3.16 µM): < 31.6 nM
IC50 (curve of first compound, second compound 10 µM): < 31.6 nM
viability, T/C (second compound 0.0316 µM, first compound 0.0316 µM): 49.6%
viability, T/C (second compound 0.0316 µM, first compound 0.1 µM): 33.7%
viability, T/C (second compound 0.0316 µM, first compound 0.316 µM): 33.5%
viability, T/C (second compound 0.0316 µM, first compound 1 µM): 31.8%
viability, T/C (second compound 0.0316 µM, first compound 3.16 µM): 38.3%
viability, T/C (second compound 0.0316 µM, first compound 10 µM): 41.4%
viability, T/C (second compound 0.1 µM, first compound 0.0316 µM): 30.5%
viability, T/C (second compound 0.1 µM, first compound 0.1 µM): 25.8%
viability, T/C (second compound 0.1 µM, first compound 0.316 µM): 18.4%
viability, T/C (second compound 0.1 µM, first compound 1 µM): 23.6%
viability, T/C (second compound 0.1 µM, first compound 3.16 µM): 31%
viability, T/C (second compound 0.1 µM, first compound 10 µM): 32.4%
viability, T/C (second compound 0.316 µM, first compound 0.0316 µM): 12.3%
viability, T/C (second compound 0.316 µM, first compound 0.1 µM): 6.9%
viability, T/C (second compound 0.316 µM, first compound 0.316 µM): 5.16%
viability, T/C (second compound 0.316 µM, first compound 1 µM): 5.25%
viability, T/C (second compound 0.316 µM, first compound 3.16 µM): 9.22%
viability, T/C (second compound 0.316 µM, first compound 10 µM): 16%
viability, T/C (second compound 1 µM, first compound 0.0316 µM): 2.71%
viability, T/C (second compound 1 µM, first compound 0.1 µM): 2.88%
viability, T/C (second compound 1 µM, first compound 0.316 µM): 2.86%
viability, T/C (second compound 1 µM, first compound 1 µM): 2.6%
viability, T/C (second compound 1 µM, first compound 3.16 µM): 4.59%
viability, T/C (second compound 1 µM, first compound 10 µM): 8.81%
viability, T/C (second compound 3.16 µM, first compound 0.0316 µM): 2.08%
viability, T/C (second compound 3.16 µM, first compound 0.1 µM): 3.98%
viability, T/C (second compound 3.16 µM, first compound 0.316 µM): 2.01%
viability, T/C (second compound 3.16 µM, first compound 1 µM): 1.59%
viability, T/C (second compound 3.16 µM, first compound 3.16 µM): 2.42%
viability, T/C (second compound 3.16 µM, first compound 10 µM): 5%
viability, T/C (second compound 10 µM, first compound 0.0316 µM): 1.03%
viability, T/C (second compound 10 µM, first compound 0.1 µM): 0.7%
viability, T/C (second compound 10 µM, first compound 0.316 µM): 0.73%
viability, T/C (second compound 10 µM, first compound 1 µM): 0.54%
viability, T/C (second compound 10 µM, first compound 3.16 µM): 1.7%
viability, T/C (second compound 10 µM, first compound 10 µM): 2.18%

O=c1[nH]cc(F)c(=O)[nH]1
viability, T/C (compound 0.0316 µM): 105% and 101% and 108%
viability, T/C (compound 0.1 µM): 88% and 103% and 95.2%
viability, T/C (compound 0.316 µM): 99.2% and 102% and 99.4%
viability, T/C (compound 1 µM): 69.5% and 66.1% and 91.1%
viability, T/C (compound 3.16 µM): 35.9% and 40.5% and 63.2%
viability, T/C (compound 10 µM): 22.8% and 19.8% and 47.5%
IC50 (curve of compound): 1950 nM and 2010 nM and 8270 nM

Cn1ncnc1[C@H]1c2n[nH]c(=O)c3cc(F)cc(c23)N[C@@H]1c1ccc(F)cc1
viability, T/C (compound 0.000999 µM): 102% and 99.8% and 101%
viability, T/C (compound 0.00316 µM): 99.8% and 104% and 94%
viability, T/C (compound 0.00999 µM): 99.8% and 105% and 98.9%
viability, T/C (compound 0.0316 µM): 94.3% and 104% and 94.9%
viability, T/C (compound 0.0999 µM): 97.9% and 101% and 106%
viability, T/C (compound 0.316 µM): 96.8% and 101% and 85.9%
IC50 (curve of compound): > 316 nM

CC[C@@]1(O)C(=O)OCc2c1cc1n(c2=O)Cc2cc3c(CN(C)C)c(O)ccc3nc2-1
viability, T/C (compound 0.000999 µM): 98.7% and 105% and 103%
viability, T/C (compound 0.00316 µM): 82.7% and 104% and 89%
viability, T/C (compound 0.00999 µM): 92.6% and 97.9% and 98.2%
viability, T/C (compound 0.0316 µM): 70.4% and 96.6% and 71.6%
viability, T/C (compound 0.0999 µM): 52.3% and 67.8% and 57.9%
viability, T/C (compound 0.316 µM): 40.8% and 48.1% and 34.1%
IC50 (curve of compound): 115 nM and 282 nM and 138 nM
